Reference: ChEMBL document CHEMBL1201862, “PubChem BioAssay data set” (2004)
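Tested at 5 concentrations; 48 h exposure; 96-well plates; endpoints linearly interpolated, else capped at highest concentration. GI50 marks 50% less growth.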 The source made the active and inactive calls. Rule as the data show it: active = GI50 up to about 1.1 µM and inactive = higher.

Legend:
Test in all cases: NCI tumour cell line growth inhibition, 48 h
LOX IMVI = system: LOX IMVI
SF-268 = system: SF-268
CCRF-CEM = system: CCRF-CEM
T47D = system: T47D
KM12 = system: KM12
HCT-116 = system: HCT-116
NCI-H23 = system: NCI-H23
SW-620 = system: SW-620
UO-31 = system: UO-31
RPMI-8226 = system: RPMI-8226
SNB-19 = system: SNB-19
SK-MEL-5 = system: SK-MEL-5
UACC-257 = system: UACC-257
M14 = system: M14
SN12C = system: SN12C
OVCAR-8 = system: OVCAR-8
MDA-MB-435 = system: MDA-MB-435
MDA-N = system: MDA-N
HCC 2998 = system: HCC 2998
EKVX = system: EKVX
HOP-92 = system: HOP-92
PC-3 = system: PC-3
SF-295 = system: SF-295
Hs-578T = system: Hs-578T
SF-539 = system: SF-539
SK-MEL-28 = system: SK-MEL-28
MCF7 = system: MCF7
A549 = system: A549
HOP-62 = system: HOP-62
SK-OV-3 = system: SK-OV-3
OVCAR-4 = system: OVCAR-4
DU-145 = system: DU-145
ACHN = system: ACHN
SNB-75 = system: SNB-75
TK-10 = system: TK-10
HCT-15 = system: HCT-15
BT-549 = system: BT-549
UACC-62 = system: UACC-62
NCI-H226 = system: NCI-H226
CAKI-1 = system: CAKI-1
786-0 = system: 786-0
SK-MEL-2 = system: SK-MEL-2
MOLT-4 = system: MOLT-4
MDA-MB-231 = system: MDA-MB-231
U-251 = system: U-251
Malme-3M = system: Malme-3M
RXF 393 = system: RXF 393
IGROV-1 = system: IGROV-1
COLO 205 = system: COLO 205
OVCAR-3 = system: OVCAR-3
NCI/ADR-RES = system: NCI/ADR-RES
OVCAR-5 = system: OVCAR-5
A498 = system: A498

With `CC(=O)OCCCCn1cc(Cn2ccc(=O)n(Cc3cn(CCCCOC(C)=O)nn3)c2=O)nn1` the GI50 (LOX IMVI) was > 100 µM (inactive), the GI50 (SF-268) was > 100 µM (inactive) and the GI50 (CCRF-CEM) was > 100 µM (inactive). The GI50 (T47D) was > 100 µM (inactive), the GI50 (KM12) was > 100 µM (inactive) and the GI50 (HCT-116) was > 100 µM (inactive). The GI50 (NCI-H23) was > 100 µM (inactive), the GI50 (SW-620) was > 100 µM (inactive) and the GI50 (UO-31) was > 100 µM (inactive). The GI50 (RPMI-8226) was > 100 µM (inactive), the GI50 (SNB-19) was > 100 µM (inactive) and the GI50 (SK-MEL-5) was > 100 µM (inactive). For the same compound, the GI50 (UACC-257) was > 100 µM (inactive), the GI50 (M14) was > 100 µM (inactive) and the GI50 (SN12C) was > 100 µM (inactive). The GI50 (OVCAR-8) was > 100 µM (inactive), the GI50 (MDA-MB-435) was > 100 µM (inactive) and the GI50 (MDA-N) was > 100 µM (inactive). The GI50 (HCC 2998) was > 100 µM (inactive), the GI50 (EKVX) was > 100 µM (inactive) and the GI50 (HOP-92) was > 100 µM (inactive). For the same compound, the GI50 (PC-3) was > 100 µM (inactive), the GI50 (SF-295) was > 100 µM (inactive) and the GI50 (Hs-578T) was > 100 µM (inactive). The GI50 (SF-539) was > 100 µM (inactive), the GI50 (SK-MEL-28) was > 100 µM (inactive) and the GI50 (MCF7) was > 100 µM (inactive). The GI50 (A549) was > 100 µM (inactive), the GI50 (HOP-62) was > 100 µM (inactive) and the GI50 (SK-OV-3) was > 100 µM (inactive). The GI50 (OVCAR-4) was > 100 µM (inactive), the GI50 (DU-145) was > 100 µM (inactive) and the GI50 (ACHN) was > 100 µM (inactive). For the same compound, the GI50 (SNB-75) was > 100 µM (inactive), the GI50 (TK-10) was > 100 µM (inactive) and the GI50 (HCT-15) was over 100 µM. For the same compound, the GI50 (BT-549) was > 100 µM (inactive), the GI50 (UACC-62) was > 100 µM (inactive) and the GI50 (NCI-H226) was > 100 µM (inactive). For the same compound, the GI50 (CAKI-1) was > 100 µM (inactive), the GI50 (786-0) was > 100 µM (inactive) and the GI50 (SK-MEL-2) was > 100 µM (inactive). For the same compound, the GI50 (MOLT-4) was > 100 µM (inactive), the GI50 (MDA-MB-231) was > 100 µM (inactive) and the GI50 (U-251) was > 100 µM (inactive). The GI50 (Malme-3M) was > 100 µM (inactive), the GI50 (RXF 393) was > 100 µM (inactive) and the GI50 (IGROV-1) was > 100 µM (inactive). The GI50 (COLO 205) was > 100 µM (inactive), the GI50 (OVCAR-3) was > 100 µM (inactive) and the GI50 (NCI/ADR-RES) was > 100 µM (inactive). The GI50 (OVCAR-5) was > 100 µM (inactive) and the GI50 (A498) was > 100 µM (inactive).
